Columns and labels:
K-Ras G12C [1] = target: T1, K-Ras G12C (Homo sapiens, UniProt P01116, G12C); experiment: Western blot assay for in cell alkylation of K-Ras G12C (HCC1171 cells); type: cell-based; set-up: endogenous in cells; host or cells: HCC1171; conditions: 18 hours at 37° C., 7 point dose response
Protocol: Western Blot Assay for in Cell Alkylation of K-Ras G12C
HCC1171 cells were maintained in RPMI1640 supplemented with 10% FBS. Cells were plated in a 96-well plate at 20,000 cells/well and the following day compounds were added to the cells. After 18 hours at 37° C., cells were lysed in RIPA buffer (Sigma R0278) with 0.5% SDS and protease/phosphatase inhibitor cocktail. After through mixing to enable complete lysis, the lysates were cleared by centrifugation before 20 μl was transferred from each well and combined with loading buffer and reducing agent. After heating for 10 minutes at 95° C., 15 μl of each sample was loaded onto a 4-20% Tris-Glycine gel and electrophoresed at 110V for 165 minutes in SDS-PAGE running buffer. Gels were transferred to a nitrocellulose membrane, blocked for 1 hour and stained overnight at 4° C. with primary antibody against K-Ras (polyclonal Proteintech 12063-1-AP). The membrane was then washed thoroughly and counterstained with anti-rabbit IRDye 800CW (LI-COR 926-32211) for one hour at room temperature. After final washes, the membrane was imaged on a LI-COR Odyssey CLx at medium resolution. Alkylated K-Ras was visible by an electrophoretic shift from unmodified K-Ras. To quantify this affect, the LICOR software was used to draw a rectangle over alkylated and unalkylated bands for each well and measured the total fluorescent intensity (FI) in each of these bands. The following formula was then used to calculate % alkylation: FI(alkylated)/(FI(alkylated)+FI(unalkylated))*100 for each well.
A 7 point dose response curve was used to determine the IC50 for each compound. Cell alkylation data are presented below in Table 2.
Target sequence in this assay (P01116 1-188 isoform P01116-2 G12C): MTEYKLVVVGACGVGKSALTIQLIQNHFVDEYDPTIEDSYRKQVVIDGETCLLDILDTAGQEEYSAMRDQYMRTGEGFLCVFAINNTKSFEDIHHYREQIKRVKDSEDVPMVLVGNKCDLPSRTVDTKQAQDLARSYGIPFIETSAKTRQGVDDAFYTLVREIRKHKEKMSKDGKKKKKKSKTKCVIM

K-Ras G12C [2] = target: T1, K-Ras G12C; experiment: K-Ras G12C, SOS1, Raf RBD HTRF assay for inhibition of GTP exchange; type: biochemical; set-up: K-Ras G12C (residues 2-188) and SOS1 (residues 564-1049) had N-terminal 6-His; made in house; host or cells: E. coli; conditions: 18 hours preincubation with K-Ras G12C at room temperature; SOS1-mediated GTP exchange
Protocol: K-Ras G12C, SOS1, Raf RBD Homogeneous Time Resolved Fluorescence (HTRF) Assay for Inhibition of GTP Exchange
After 18 hours at room temperature, the SOS1 GTP exchange factor (1.67 nM during exchange, 1.25 nM final) was added to initiate nucleotide exchange to GTP (200 μM during exchange, 150 μM final). The level of GTP exchange was assessed by addition of a Ras binding domain derived from C-Raf and the HTRF detection antibodies Tb-anti-FLAG and D2-anti-his (Cis-Bio) at 50 nM, 1 nM and 12.5 nM, respectively. After 2 hours, the ratio of 665 nm to 615 nm emission with 320 nm excitation was measured on an Envision plate reader (Perkin Elmer).
The final reaction volume was 20 μl in a ProxiPlate-384F Plus (Perkin Elmer), in buffer containing 20 mM HEPES, 150 mM NaCl, 1 mM MgCl2, 0.1% BSA, 0.03% Tween-20 and 1 mM DTT. […] HTRF data are presented below in Table 2.
Target sequence in this assay (P01116 2-188 isoform P01116-2 G12C): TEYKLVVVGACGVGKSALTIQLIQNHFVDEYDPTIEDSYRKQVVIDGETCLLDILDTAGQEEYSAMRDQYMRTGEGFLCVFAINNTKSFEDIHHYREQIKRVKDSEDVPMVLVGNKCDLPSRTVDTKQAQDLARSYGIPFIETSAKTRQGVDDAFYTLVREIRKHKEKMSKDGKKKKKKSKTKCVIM

Compound | EC50 (K-Ras G12C [1]) | IC50 (K-Ras G12C [2])
C#CC[C@H]1CN(c2nc(OC[C@@H]3CCCN3C)nc3c2C[C@@H](C)[C@H](c2cccc4c2CCC4)C3)CCN1C(=O)C=C (single isomer, unassigned) [Example 40a] | 100 nM | < 10 nM
C#CC[C@H]1CN(c2nc(OC[C@@H]3CCCN3C)nc3c2C[C@H](C)[C@@H](c2cccc4c2CCC4)C3)CCN1C(=O)C=C (single isomer, unassigned) [Example 40b] | 1000 nM | 560 nM
C#CC[C@@H]1CN(c2nc(OC[C@@H]3CCCN3C)nc3c2C[C@H](C)[C@@H](c2cccc4c2CCC4)C3)CCN1C(=O)C=C (single isomer, unassigned) [Example 40c] | 1000 nM | 1200 nM
C#CC[C@@H]1CN(c2nc(OC[C@@H]3CCCN3C)nc3c2C[C@@H](C)[C@H](c2cccc4c2CCC4)C3)CCN1C(=O)C=C (single isomer, unassigned) [Example 40d] | 1000 nM | 29 nM
C=CC(=O)N1CCN(c2nc(OC[C@@H]3CCCN3C)nc3c2C[C@H](C)[C@@H](c2nc(N)ccc2C(F)(F)F)C3)[C@@H](C)C1 (single isomer, unassigned) [Example 41a] | 880 nM | 500 nM
C=CC(=O)N1CCN(c2ncnc3c2C[C@@H](C)[C@H](c2nc(N)ccc2C(F)(F)F)C3)CC1 (single isomer, unassigned) [Example 42b] | 360 nM | 67 nM
C=CC(=O)N1CCN(c2ncnc3c2CC[C@@H](c2cncc4ccccc24)C3)CC1 (single isomer, unassigned) [Example 44a] | 1000 nM | > 50000 nM
C=CC(=O)N1CCN(c2ncnc3c2CC[C@H](c2cncc4ccccc24)C3)CC1 (single isomer, unassigned) [Example 44b] | 1000 nM | 8700 nM
C=CC(=O)N1CCN(c2ncnc3c2CC[C@H](c2nc(N)ccc2C(F)(F)F)C3)CC1 (single isomer, unassigned) [Example 46b] | 970 nM | 230 nM
C=C(F)C(=O)N1CCN(c2nc(OC[C@@H]3CCCN3C)nc3c2CCC(c2cccc4ccccc24)C3)CC1CC#N (single isomer, unassigned) [Example 47a] | 530 nM | 150 nM
C=C(F)C(=O)N1CCN(c2nc(OC[C@@H]3CCCN3C)nc3c2CCC(c2cccc4ccccc24)C3)CC1CC#N (single isomer, unassigned) [Example 47c] | 450 nM | 130 nM
C=C(F)C(=O)N1CCN(c2nc(OC[C@@H]3CCCN3C)nc3c2CCC(c2cccc4ccccc24)C3)C[C@@H]1CC#N (single isomer, unassigned) [Example 47d] | 30 nM | < 10 nM
C=CC(=O)N1CCN(c2nc(OC[C@@H]3COC(=O)N3C)nc3c2CC[C@H](c2cc(O)cc4ccccc24)C3)[C@@H](C)C1 (single isomer, unassigned) [Example 57c] | 830 nM | 53 nM
C=CC(=O)N1CCN(c2nc(OC[C@H]3COC(=O)N3C)nc3c2CC[C@H](c2cc(O)cc4ccccc24)C3)[C@@H](C)C1 (single isomer, unassigned) [Example 57d] | 880 nM | 45 nM
C=CC(=O)N1CCN(c2nc(OC[C@@H]3CCCN3C)nc3c2CC[C@H](c2cc(O)cc4ccccc24)C3)C[C@@H]1CC#N (single isomer, unassigned) [Example 58b] | 1900 nM | 130 nM
C=CC(=O)N1CCN(c2nc(OC[C@@H]3CCCN3C)nc3c2CC[C@H](c2cc(O)cc4ccccc24)C3)C[C@H]1CC#N (single isomer, unassigned) [Example 58c] | 340 nM | 29 nM
C=CC(=O)N1CCN(c2nc(OC[C@@H]3CCCN3C)nc3c2CC[C@@H](c2cc(O)cc4ccccc24)C3)C[C@@H]1CC#N (single isomer, unassigned) [Example 58d] | 6.3 nM | 24 nM
C=CC(=O)N1CCN(c2nc(OC[C@@H]3CCCN3C)nc3c2CC[C@@H](c2cc(O)cc4ccccc24)C3)C[C@H]1CC#N (single isomer, unassigned) [Example 58e] | 110 nM | 29 nM
C=C(F)C(=O)N1CCN(c2nc(OC[C@@H]3CCCN3C)nc3c2CC[C@H](c2cc(O)cc4ccccc24)C3)C[C@H]1CC#N (single isomer, unassigned) [Example 61b] | 2800 nM | 640 nM
C=C(F)C(=O)N1CCN(c2nc(OC[C@@H]3CCCN3C)nc3c2CC[C@H](c2cc(O)cc4ccccc24)C3)C[C@@H]1CC#N (single isomer, unassigned) [Example 61c] | 1800 nM | 83 nM
C=C(F)C(=O)N1CCN(c2nc(OC[C@@H]3CCCN3C)nc3c2CC[C@@H](c2cc(O)cc4ccccc24)C3)C[C@H]1CC#N (single isomer, unassigned) [Example 61d] | 11 nM | 28 nM
C=C(F)C(=O)N1CCN(c2nc(OC[C@@H]3CCCN3C)nc3c2CC[C@@H](c2cc(O)cc4ccccc24)C3)C[C@@H]1CC#N (single isomer, unassigned) [Example 61e] | 1500 nM | 90 nM
CN1CCC[C@H]1COc1nc2c(c(N3CCN(C(=O)/C=C/CF)[C@H](CC#N)C3)n1)CC[C@H](c1cc(O)cc3ccccc13)C2 (single isomer, unassigned) [Example 62b] | 2900 nM | 180 nM
CN1CCC[C@H]1COc1nc2c(c(N3CCN(C(=O)/C=C/CF)[C@@H](CC#N)C3)n1)CC[C@H](c1cc(O)cc3ccccc13)C2 (single isomer, unassigned) [Example 62c] | 1000 nM | 73 nM
CN1CCC[C@H]1COc1nc2c(c(N3CCN(C(=O)/C=C/CF)[C@H](CC#N)C3)n1)CCC(c1cc(O)cc3ccccc13)C2 (single isomer, unassigned) [Example 62d] | 6.4 nM | < 10 nM
CN1CCC[C@H]1COc1nc2c(c(N3CCN(C(=O)/C=C/CF)[C@@H](CC#N)C3)n1)CC[C@@H](c1cc(O)cc3ccccc13)C2 (single isomer, unassigned) [Example 62e] | 450 nM | 660 nM
C=CC(=O)N1CCC(C#N)(c2nc(OC[C@@H]3CCCN3C)nc3c2CCC(c2cc(O)cc4ccccc24)C3)CC1 (stereo partly drawn) [Example 7a, 4-[7-(3-hydroxy-1-naphthyl)-2-[[(2S)-1-methylpyrrolidin-2-yl]methoxy]-5,6,7,8-tetrahydroquinazolin-4-yl]-1-prop-2-enoyl-piperidine-4-carbonitrile] | 2500 nM | 87 nM
C=CC(=O)N1CCN(c2nc(OC[C@@H]3CCCN3C)nc3c2CC(C)C(c2c(C)ccc4[nH]ncc24)C3)CC1 (stereo partly drawn) [Example 18a, 1-(4-(6-methyl-7-(5-methyl-1H-indazol-4-yl)-2-(((S)-1-methylpyrrolidin-2-yl)methoxy)-5,6,7,8-tetrahydroquinazolin-4-yl)piperazin-1-yl)prop-2-en-1-one] | 280 nM | 24 nM
C=CC(=O)N1CCN(c2nc(OC[C@@H]3CCCN3C)nc3c2CCC2(CCCCC2)C3)CC1 [Example 25a, (S)-1-(4-(2′-((1-methylpyrrolidin-2-yl)methoxy)-5′,8′-dihydro-6′H-spiro[cyclohexane-1,7′-quinazolin]-4′-yl)piperazin-1-yl)prop-2-en-1-one] | 1000 nM | 5400 nM

Reference: patent US11760744B2, “Fused ring compounds” (Genentech, Inc., priority 2018, dated 2023)
